BigSolDB 2.1

Oc1ccc(C2(c3ccc(O)cc3)CCCCC2)cc1
solubility (mole fraction)
Conditions	in 1,4-dioxane	in THF	in acetone	in ethanol	in ethyl acetate	in isopropanol	in methanol	in n-butanol	in n-propanol
288.15 K	0.0609	0.182	0.0602	0.0073	0.0571	0.0053	0.012	0.012	0.032
293.15 K	0.0621	0.192	0.0652	0.0084	0.0681	0.0061	0.0129	0.0127	0.0355
298.15 K	0.0676	0.206	0.0756	0.0096	0.0769	0.0066	0.0162	0.0133	0.0437
303.15 K	0.0731	0.221	0.0931	0.0117	0.0951	0.0076	0.0208	0.0157	0.0563
308.15 K	0.0866	0.236	0.109	0.013	0.113	0.0089	0.0253	0.0184	0.0654
313.15 K	0.103	0.251	0.127	0.0152	0.136	0.0134	0.0342	0.0236	0.0789
318.15 K	0.116	0.268	0.152	0.017	0.15	0.0192	0.0428	0.028	0.0896
323.15 K	0.127	0.283	0.182	0.0186	0.176	0.0243	0.0547	0.0348	0.103
328.15 K	0.144	0.308	0.219	0.0202	0.199	0.0294	0.0685	0.0431	0.121
